Columns and labels:
[1] = Cytotoxicity against human KATO III cells by flow cytometric analysis; type: functional, cell-based, KATO III cell
MCF7 = experiment: Cytotoxicity against human MCF7 cells by flow cytometric analysis; type: functional, cell-based
A549 [2] = experiment: Cytotoxicity against human A549 cells by flow cytometric analysis; type: functional, cell-based
[3] = target: RAC-alpha serine/threonine-protein kinase (Homo sapiens, UniProt P31749); experiment: Inhibition of Akt phosphorylation in human insulin-stimulated A549 cells incubated for 2 hrs prior to insulin-induction measured after 30 mins by ELISA; type: cell-based
A549 [4] = experiment: Ratio of edelfosine IC50 to compound IC50 for human A549 cells; type: functional
A549 [5] = experiment: Ratio of perifosine IC50 to compound IC50 for human A549 cells; type: functional
A549 [6] = experiment: Ratio of miltefosine IC50 to compound IC50 for human A549 cells; type: functional

Sequence of RAC-alpha serine/threonine-protein kinase (P31749 whole entry): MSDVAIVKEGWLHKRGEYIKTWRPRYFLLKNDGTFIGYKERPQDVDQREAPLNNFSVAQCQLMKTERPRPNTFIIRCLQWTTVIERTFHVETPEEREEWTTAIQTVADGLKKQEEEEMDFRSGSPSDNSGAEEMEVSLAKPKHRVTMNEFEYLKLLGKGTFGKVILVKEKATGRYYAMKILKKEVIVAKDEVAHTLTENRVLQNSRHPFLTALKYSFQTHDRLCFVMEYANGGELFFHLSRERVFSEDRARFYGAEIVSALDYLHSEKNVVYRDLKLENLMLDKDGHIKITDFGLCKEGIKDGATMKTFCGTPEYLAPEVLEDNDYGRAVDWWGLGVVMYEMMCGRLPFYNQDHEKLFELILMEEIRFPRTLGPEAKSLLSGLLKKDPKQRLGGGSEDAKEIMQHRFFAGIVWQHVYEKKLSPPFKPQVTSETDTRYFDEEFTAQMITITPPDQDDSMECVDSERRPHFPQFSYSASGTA

IC50 [3] | SMILES | IC50 [1] | IC50 (MCF7) | IC50 (A549 [2]) | Ratio IC50 (A549 [4]) | Ratio IC50 (A549 [5]) | Ratio IC50 (A549 [6])
5.5 µM | CCCCCCCCCCCCCCCCCCCCCC[C@@]1(C(=O)OCC)CCC[C@H]1OP(=O)([O-])OCC[N+](C)(C)C (racemic) | 10.4 µM | 16.8 µM | 6.9 µM | – | – | –
19.1 µM | CCCCCCCCCCCCCCCCCCCCCC[C@@]1(C(=O)OCC)CCC[C@@H]1OP(=O)([O-])OCC[N+](C)(C)C (racemic) | 11.4 µM | 7.6 µM | 17.8 µM | – | – | –
2 µM | CCCCCCCCCCCCCCCC[C@@]1(C(=O)OCC)CCC[C@H]1OP(=O)([O-])OCC[N+](C)(C)C (racemic) | 7.9 µM | 5.6 µM | 1.6 µM | 4 | 4 | 4
3.5 µM | CCCCCCCCCCCCCCCCCCOCC(COP(=O)([O-])OCC[N+](C)(C)C)OC (configuration not stated) [EDELFOSINE] | 12.8 µM | 9.3 µM | 7.4 µM | – | – | –
6.9 µM | CCCCCCCCCCCCCCCCCCCC[C@@]1(C(=O)OCC)CCC[C@@H]1OP(=O)([O-])OCC[N+](C)(C)C (racemic) | 10.9 µM | 16 µM | 7.2 µM | – | – | –
7 µM | CCCCCCCCCCCCCCCCCCCC[C@@]1(C(=O)OCC)CCC[C@H]1OP(=O)([O-])OCC[N+](C)(C)C (racemic) | 11.1 µM | 9.7 µM | 13.6 µM | – | – | –
9.6 µM | CCCCCCCCCCCCCCCCOP(=O)([O-])OCC[N+](C)(C)C [MILTEFOSINE] | – | – | – | – | – | –
10.9 µM | CCCCCCCCCCCCCCCCCC[C@@]1(C(=O)OCC)CCC[C@H]1OP(=O)([O-])OCC[N+](C)(C)C (racemic) | 15 µM | 13.1 µM | 6.2 µM | – | – | –
5 µM | CCCCCCCCCCCCCCCC[C@@]1(C(=O)OCC)CCC[C@@H]1OP(=O)([O-])OCC[N+](C)(C)C (racemic) | 10.6 µM | 11.1 µM | 3.6 µM | – | – | –
6.2 µM | CCCCCCCCCCCCC[C@@]1(C(=O)OCC)CCC[C@@H]1OP(=O)([O-])OCC[N+](C)(C)C (racemic) | 9.7 µM | 4.5 µM | 2.7 µM | – | – | –
5.3 µM | CCCCCCCCCCCCCCCCCCOP(=O)([O-])OC1CC[N+](C)(C)CC1 [PERIFOSINE] | – | – | – | – | – | –
3 µM | CCCCCCCCCCCCCCCCCC[C@@]1(C(=O)OCC)CCC[C@@H]1OP(=O)([O-])OCC[N+](C)(C)C (racemic) | 9.9 µM | 7.5 µM | 4.6 µM | – | – | –
3.1 µM | CCCCCCCCCCCCC[C@@]1(C(=O)OCC)CCC[C@H]1OP(=O)([O-])OCC[N+](C)(C)C (racemic) | 14.1 µM | 11.2 µM | 2 µM | 4 | 4 | 4

Reference: ChEMBL document CHEMBL2346609, “Synthesis, characterization and Akt phosphorylation inhibitory activity of cyclopentanecarboxylate-substituted alkylphosphocholines” (Bioorg Med Chem, 2013)
